Measured values published in patent publication US20250129091A1, “THIENOPYRROLOTRIAZINE COMPOUNDS, THEIR PREPARATION AND THEIR THERAPEUTIC USE” (Sanofi, priority 2022, published 2025).
Where a name gives a salt, the structure may show the parent alone.

Tested on: NLRP3 inflammasome
Assay: IL-1β secretion assay (LPS-primed, nigericin-activated THP-1 cells, MSD readout)
Assay type: cell-based
Conditions: Homo sapiens, THP-1, LPS-primed, read-out: IL1b IC50
Description: Monocytic THP-1 cells (DSMZ) were maintained in RPMI media (RPMI 1640 Medium (1×) +10% FBS, Eurobio CVFSVFOO—OU). Cells were then plated at 16,000 cells per well in 96-well round bottom cell culture plates (TPP, ref 92097) and maintained with RPMI and 0.1% Bovine Serum Albumin solution. Activation of the NLRP3 inflammasome requires both an NF-kB-dependent priming step and the addition of a NLRP3 activator. The priming step was induced by LPS (10 ng/mL, Sigma, ref:L4391) for 3 h at 37° C., then compound, in a 1:3.10 serial dilution series in DMSO 1:100, and the activator nigericin (Sigma Aldrich, ref: SML1779) 10 μM (final concentration) were added to the cells and co-incubated for 2 h. 50 μL supernatant was removed, and IL-1β levels were monitored using an MSD assay (Electro Chemical Luminescence Immunoassay (ECLI) according to manufacturers' instructions.
IC50 values were calculated from the plot of percentage of inhibition versus the inhibitor concentration by a logistics fit according to: y=A2+(A1−A2)/(1+(x/IC50)^p) where y is the %-inhibition at the inhibitor concentration, x. A1 is the lowest inhibition value, i.e., 0%, and A2 the maximum inhibition value, i.e., 100%. The exponent, p, is the Hill coefficient. The curve fitting was conducted with an internally developed software.

Question: `CCOC(=O)C(C)(C)N1CCCC(NC(=O)Cn2nc(C(C)C)n3c(cc4ccsc43)c2=O)C1` (centres unmarked) [Example 80, ethyl 2-methyl-2-[3-[[2-(8-isopropyl-5-oxothieno[3′,2′:4,5]pyrrolo[1,2-d][1,2,4]triazin-6(5H)-yl)acetyl]amino]piperidin-1-yl]propanoate] was tested. Which IC50 did it give?
Answer: 0.322 µM

Question: With `CC(C)c1nn(CC(=O)Nc2ncncc2F)c(=O)c2cc3ccsc3n12` [Example 70, N-(5-fluoropyrimidin-4-yl)-2-(12-isopropyl-9-oxo-3-thia-1,10,11-triazatricyclo[6.4.0.02,6]dodeca-2(6),4,7,11-tetraen-10-yl)acetamide] as the molecule, how does the IC50 read?
Answer: 0.148 µM

Question: `CC(C)c1nn(CC(=O)NC2CN(C3CC3)CC(F)(F)C2)c(=O)c2cc3ccsc3n12` (centres unmarked) [Example 63, N-(1-cyclopropyl-5,5-difluoropiperidin-3-yl)-2-(8-isopropyl-5-oxothieno[3′,2′:4,5]pyrrolo [1,2-d][1,2,4]triazin-6(5H)-yl)acetamide 2,2,2-trifluoroacetate] was tested. Which IC50 did it give?
Answer: 1.66 µM

Question: `CC(C)c1nn(CC(=O)Nc2ccc3scnc3c2)c(=O)c2cc3ccsc3n12` [Example 15, N-(benzo[d]thiazol-5-yl)-2-(8-isopropyl-5-oxothieno[3′,2′:4,5]pyrrolo[1,2-d][1,2,4]triazin-6(5H)-yl)acetamide] was tested. Which IC50 did it give?
Answer: 2.74 µM

Question: How did the IC50 turn out when `COCC(C)N1CCC[C@@H](NC(=O)Cn2nc(C(C)C)n3c(cc4ccsc43)c2=O)C1` (stereo partly drawn) [Example 64, 2-(8-isopropyl-5-oxothieno[3′,2′:4,5]pyrrolo[1,2-d][1,2,4]triazin-6(5H)-yl)-N-((3R)-1-(1-methoxypropan-2-yl)piperidin-3-yl)acetamide] was run?
Answer: 0.109 µM

Question: How did the IC50 turn out when `CC(C)c1nn(CC(=O)N[C@@H]2CCCN(CC#N)C2)c(=O)c2cc3ccsc3n12` [Example 75, N-[(3R)-1-(cyanomethyl)piperidin-3-yl]-2-(8-isopropyl-5-oxothieno[3′,2′:4,5]pyrrolo[1,2-d][1,2,4]triazin-6(5H)-yl)acetamide] was run?
Answer: 0.157 µM

Question: How did the IC50 turn out when `Cc1ccc(NC(=O)Cn2nc(C(C)C)n3c(cc4ccsc43)c2=O)cn1` [Example 68, 2-(12-isopropyl-9-oxo-3-thia-1,10,11-triazatricyclo[6.4.0.02,6]dodeca-2(6),4,7,11-tetraen-10-yl)-N-(6-methyl-3-pyridyl)acetamide] was run?
Answer: 2.28 µM

Question: With `COCc1nn(CC(=O)N[C@@H]2CCCN(C3CC3)C2)c(=O)c2cc3ccsc3n12` [Example 33, (R)—N-(1-cyclopropylpiperidin-3-yl)-2-(8-(methoxymethyl)-5-oxothieno[3′,2′:4,5]pyrrolo[1,2-d][1,2,4]triazin-6(5H)-yl)acetamide 2,2,2-trifluoroacetate] as the molecule, how does the IC50 read?
Answer: 2.75 µM

Question: With `CC(C)c1nn(CC(=O)N[C@@H]2CCCN(C3(C)CCCC3)C2)c(=O)c2cc3ccsc3n12` [Example 71, 2-(12-isopropyl-9-oxo-3-thia-1,10,11-triazatricyclo[6.4.0.02,6]dodeca-2(6),4,7,11-tetraen-10-yl)-N-[(3R)-1-(1-methylcyclopentyl)-3-piperidyl]acetamide] as the molecule, how does the IC50 read?
Answer: 0.07 µM

Question: `CC(C)c1nn(CC(=O)N[C@@H]2CCCN(C3CCCC3)C2)c(=O)c2cc3ccsc3n12` [Example 49, N-[(3R)-1-cyclopentyl-3-piperidyl]-2-(12-isopropyl-9-oxo-3-thia-1,10,11-triazatricyclo [6.4.0.02,6]dodeca-2(6),4,7,11-tetraen-10-yl)acetamide] was tested. Which IC50 did it give?
Answer: 0.027 µM

Question: With `CC(C)c1nn(CC(=O)NC2C[C@@H]3CN[C@H]2C3)c(=O)c2cc3ccsc3n12` (stereo partly drawn) [Example 88, N-[(1S,4R)-2-azabicyclo[2.2.1]heptan-6-yl]-2-(12-isopropyl-9-oxo-3-thia-1,10,11-triazatricyclo[6.4.0.02,6]dodeca-2(6),4,7,11-tetraen-10-yl)acetamidehydrochloride] as the molecule, how does the IC50 read?
Answer: > 10 µM

Question: Which IC50 does the source give for `CC(C)c1nn(CC(=O)NC2CCCN(C(C)(C)C)C2)c(=O)c2cc3ccsc3n12` (centres unmarked) [Example 37, N-(1-(tert-butyl)piperidin-3-yl)-2-(8-isopropyl-5-oxothieno[3′,2′:4,5]pyrrolo[1,2-d][1,2,4]triazin-6(5H)-yl)acetamide formate] here?
Answer: 0.045 µM

Question: For `CC(C)c1nn(CC(=O)N[C@@H]2CCCN(C(C)(C)CO)C2)c(=O)c2cc3ccsc3n12` [Example 79, N-[(3R)-1-(1-hydroxy-2-methylpropan-2-yl)piperidin-3-yl]-2-(8-isopropyl-5-oxothieno [3′,2′:4,5]pyrrolo[1,2-d][1,2,4]triazin-6(5H)-yl)acetamide], which IC50 is on record?
Answer: 0.029 µM

Question: For `CC(C)c1nn(CC(=O)Nc2ccc3cnn(C)c3c2)c(=O)c2cc3ccsc3n12` [Example 27, 2-(8-isopropyl-5-oxothieno[3′,2′:4,5]pyrrolo[1,2-d][1,2,4]triazin-6(5H)-yl)-N-(1-methyl-1H-indazol-6-yl)acetamide formate], which IC50 is on record?
Answer: 1.03 µM

Question: Which IC50 does the source give for `CC(C)c1nn(CC(=O)Nc2ccncn2)c(=O)c2cc3ccsc3n12` [Example 66, 2-(12-isopropyl-9-oxo-3-thia-1,10,11-triazatricyclo[6.4.0.02,6]dodeca-2(6),4,7,11-tetraen-10-yl)-N-pyrimidin-4-yl-acetamide] here?
Answer: 2.07 µM

Question: `CC(C)c1nn(CC(=O)Nc2cncs2)c(=O)c2cc3cc(Cl)sc3n12` [Example 7, 2-(2-chloro-8-isopropyl-5-oxothieno[3′,2′:4,5]pyrrolo[1,2-d][1,2,4]triazin-6(5H)-yl)-N-(thiazol-5-yl)acetamide] was tested. Which IC50 did it give?
Answer: 1.79 µM

Question: How did the IC50 turn out when `CCc1nn(CC(=O)N[C@@H]2CCCN(C[C@H](C)O)C2)c(=O)c2cc3ccsc3n12` [Example 69, 2-(12-ethyl-9-oxo-3-thia-1,10,11-triazatricyclo[6.4.0.02,6]dodeca-2(6),4,7,11-tetraen-10-yl)-N-[(3R)-1-[(2S)-2-hydroxypropyl]-3-piperidyl]acetamide] was run?
Answer: 3.43 µM

Question: For `CC(C)c1nn(CC(=O)N[C@@H]2CCCCN(C3CC3)C2)c(=O)c2cc3ccsc3n12` [Example 61, N-[(3R)-1-cyclopropylazepan-3-yl]-2-(12-isopropyl-9-oxo-3-thia-1,10,11-triazatricyclo [6.4.0.02,6]dodeca-2(6),4,7,11-tetraen-10-yl)acetamide], which IC50 is on record?
Answer: 0.159 µM

Question: With `CC(C)c1nn(CC(=O)Nc2ccccn2)c(=O)c2cc3ccsc3n12` [Example 58, 2-(12-isopropyl-9-oxo-3-thia-1,10,11-triazatricyclo[6.4.0.02,6]dodeca-2(6),4,7,11-tetraen-10-yl)-N-(2-pyridyl)acetamide] as the molecule, how does the IC50 read?
Answer: 0.657 µM

Question: How did the IC50 turn out when `CC(C)c1nn(CC(=O)NC2CC3(C2)CN(C)C3)c(=O)c2cc3ccsc3n12` [Example 83, N-(2-methyl-2-azaspiro[3.3]heptan-6-yl)-2-(8-isopropyl-5-oxothieno[3′,2′:4,5]pyrrolo[1,2-d][1,2,4]triazin-6(5H)-yl)acetamide] was run?
Answer: 1.88 µM

Question: How did the IC50 turn out when `CC(C)c1nn(CC(=O)NCC2CC(=O)N(C(C)(C)C)C2)c(=O)c2cc3ccsc3n12` (centres unmarked) [Example 55, N-[(1-tert-butyl-5-oxo-pyrrolidin-3-yl)methyl]-2-(12-isopropyl-9-oxo-3-thia-1,10,11-triazatricyclo[6.4.0.02,6]dodeca-2(6),4,7,11-tetraen-10-yl)acetamide] was run?
Answer: 3.23 µM

Question: For `CC(C)c1nn(CC(=O)N[C@@H]2CCCN(CCC#N)C2)c(=O)c2cc3ccsc3n12` [Example 77, N-[(3R)-1-(2-cyanoethyl)piperidin-3-yl]-2-(8-isopropyl-5-oxothieno[3′,2′:4,5]pyrrolo[1,2-d][1,2,4]triazin-6(5H)-yl)acetamide], which IC50 is on record?
Answer: 0.078 µM

Question: Which IC50 does the source give for `CCc1nn(CC(=O)N[C@@H]2CCCN(C)C2)c(=O)c2cc3ccsc3n12` [Example 73, 2-(12-ethyl-9-oxo-3-thia-1,10,11-triazatricyclo[6.4.0.02,6]dodeca-2(6),4,7,11-tetraen-10-yl)-N-[(3R)-1-methyl-3-piperidyl]acetamide] here?
Answer: > 10 µM

Question: Which IC50 does the source give for `COc1cc(NC(=O)Cn2nc(C(C)C)n3c(cc4ccsc43)c2=O)ccn1` [Example 65, 2-(8-isopropyl-5-oxothieno[3′,2′:4,5]pyrrolo[1,2-d][1,2,4]triazin-6(5H)-yl)-N-(2-methoxypyridin-4-yl)acetamide] here?
Answer: 3.8 µM

Question: How did the IC50 turn out when `CC(C)c1nn(CC(=O)NC2CCNC(=O)C2)c(=O)c2cc3ccsc3n12` (centres unmarked) [Example 85, 2-(12-isopropyl-9-oxo-3-thia-1,10,11-triazatricyclo[6.4.0.02,6]dodeca-2(6),4,7,11-tetraen-10-yl)-N-(2-oxo-4-piperidyl)acetamide] was run?
Answer: > 10 µM

Question: `CC(C)c1nn(CC(=O)NC2CCN(C(C)(C)C)C2)c(=O)c2cc3ccsc3n12` (racemic) [Example 87, 2-(12-isopropyl-9-oxo-3-thia-1,10,11-triazatricyclo[6.4.0.02,6]dodeca-2(6),4,7,11-tetraen-10-yl)-N-[rac-(3R)-1-tert-butylpyrrolidin-3-yl]acetamide] was tested. Which IC50 did it give?
Answer: > 10 µM

Question: Which IC50 does the source give for `CC(C)c1nn(C(C)C(=O)N[C@@H]2CCCN(C3CCC3)C2)c(=O)c2cc3ccsc3n12` (stereo partly drawn) [Example 25, N—((R)-1-cyclobutylpiperidin-3-yl)-2-(8-isopropyl-5-oxothieno[3′,2′:4,5]pyrrolo[1,2-d][1,2,4]triazin-6(5H)-yl)propanamide formate] here?
Answer: 0.768 µM

Same assay, conditions: LPS-primed, read-out: IL1b IC50

Question: `CC(O)c1nn(CC(=O)N[C@@H]2CCCN(C3CC3)C2)c(=O)c2cc3ccsc3n12` (single isomer, unassigned) [Example 44] was tested. Which IC50 did it give?
Answer: 0.278 µM

Question: How did the IC50 turn out when `CC(O)c1nn(CC(=O)N[C@@H]2CCCN(C3CC3)C2)c(=O)c2cc3ccsc3n12` (single isomer, unassigned) [Example 51] was run?
Answer: > 10 µM
